Here are results for three molecules from patent US6004928A, “Method of treating hyperlipidemia” (Biomeasure, Incorporated, priority 1998, dated 1999).

Positions of bridges follow the written chain, without caps; N, C: chain ends. Non-standard residues stand in square brackets, D forms with d. Residues, ends and D or L forms follow the SMILES beside them.

The Ki is the dissociation constant of the complex between target and ligand, obtained from inhibition or displacement. Higher therefore signals weaker binding.

In assay [1] the target is T1, hSSTR-5 (Homo sapiens, UniProt P35346).
T1 construct: expressed in transfected cells; crude membranes
T1 sequence (P35346 whole entry): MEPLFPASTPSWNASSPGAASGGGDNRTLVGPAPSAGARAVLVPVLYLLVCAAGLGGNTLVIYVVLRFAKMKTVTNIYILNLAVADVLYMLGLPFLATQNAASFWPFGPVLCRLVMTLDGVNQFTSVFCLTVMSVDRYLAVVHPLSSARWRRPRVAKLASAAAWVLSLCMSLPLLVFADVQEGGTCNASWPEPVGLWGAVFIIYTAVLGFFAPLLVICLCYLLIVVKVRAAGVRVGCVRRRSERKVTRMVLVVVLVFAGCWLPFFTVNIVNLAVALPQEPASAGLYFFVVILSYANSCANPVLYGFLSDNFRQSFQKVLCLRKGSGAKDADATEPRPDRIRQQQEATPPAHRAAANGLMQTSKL
Put plainly: Somatostatin receptor binding assay, [125I-Tyr11]somatostatin-14, transfected CHO-K1 membranes. Particulars: 0.05 nM [125I-Tyr11]somatostatin-14, 30 min at 30° C.
Description: (§1) CHO-K1 (ovary, Chinese hamster) cells were obtained from ATCC (ATCC No. CCL 61). The cells were grown and maintained in Ham's F12 media (Gibco BRL, Grand Island, N.Y.) supplemented with 10% fetal bovine serum under standard tissue culture conditions. For transfection, the cells were seeded at a density 1×10^6 /60-cm plate (Baxter Scientific Products, McGraw Park, Ill.). […] CHO-K1 clonal cell lines that have stably inherited the transfected DNA were selected for growth in Ham's F12 media containing 10% fetal bovine serum and 0.5 mg/ml of G418 (Sigma). The cells were ring-cloned and expanded in the same media for analysis.
(§2) Transfected cell lines expressing the human SSTR receptors were clonally expanded in culture and used in the following SSTR binding protocol.
(§3) Crude membranes were prepared by homogenization of the transfected cells in 20 ml of ice-cold 50 mM Tris-HCl with a POLYTRON homogenizer (setting 6, 15 sec). Buffer was added to obtain a final volume of 40 ml, and the homogenate was centrifuged in a Sorval SS-34 rotor at 39,000 g for 10 min at 0-4° C. The resulting supernatant was decanted and discarded. The pellet was rehomogenized in ice-cold buffer, diluted, and centrifuged as before. The final pellet was resuspended in the 10 mM Tris HCl and held on ice for the receptor binding assay.
The final assay volume was 0.3 ml. […]

The target in assay [2] is T2, hSSTR-2 (Homo sapiens, UniProt P30874).
T2 construct: expressed in transfected cells; crude membranes
T2 sequence (P30874 whole entry): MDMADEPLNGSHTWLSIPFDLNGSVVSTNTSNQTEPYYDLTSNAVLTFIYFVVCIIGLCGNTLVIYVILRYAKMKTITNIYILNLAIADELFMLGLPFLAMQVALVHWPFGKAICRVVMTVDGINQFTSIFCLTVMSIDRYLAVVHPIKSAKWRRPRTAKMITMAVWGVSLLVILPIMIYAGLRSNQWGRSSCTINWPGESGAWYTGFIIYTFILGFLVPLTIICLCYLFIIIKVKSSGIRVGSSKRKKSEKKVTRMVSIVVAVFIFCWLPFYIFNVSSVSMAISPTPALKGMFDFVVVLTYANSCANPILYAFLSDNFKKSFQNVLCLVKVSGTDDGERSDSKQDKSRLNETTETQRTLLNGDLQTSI
Described as above. Conditions: 0.05 nM [125I-Tyr11]somatostatin-14, 30 min at 30° C.
Description: as §1, §2, §3
The final assay volume was 0.3 ml. […]

For assay [3], the target named is T3, hSSTR-4 (Homo sapiens, UniProt P31391).
T3 construct: expressed in transfected cells; crude membranes
T3 sequence (P31391 whole entry): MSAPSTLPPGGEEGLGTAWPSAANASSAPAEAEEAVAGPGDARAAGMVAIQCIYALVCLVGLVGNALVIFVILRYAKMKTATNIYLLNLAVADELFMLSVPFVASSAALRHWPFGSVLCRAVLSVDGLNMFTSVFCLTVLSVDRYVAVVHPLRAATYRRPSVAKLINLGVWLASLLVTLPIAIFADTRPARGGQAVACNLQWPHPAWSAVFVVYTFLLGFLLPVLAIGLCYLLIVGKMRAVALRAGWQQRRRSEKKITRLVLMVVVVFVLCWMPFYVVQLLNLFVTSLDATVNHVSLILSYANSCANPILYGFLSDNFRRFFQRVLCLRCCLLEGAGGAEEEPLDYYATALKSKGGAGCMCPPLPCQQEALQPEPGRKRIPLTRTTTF
Described as above. Particulars: 0.05 nM [125I-Tyr11]somatostatin-14, 30 min at 30° C.
Description: as §1, §2, §3
The final assay volume was 0.3 ml. […]

Assay [4] addresses T4, hSSTR-3 (Homo sapiens, UniProt P32745).
T4 construct: expressed in transfected cells; crude membranes
Described as above. Particulars: 0.05 nM [125I-Tyr11]somatostatin-14, 30 min at 30° C.
Description: as §1, §2, §3
The final assay volume was 0.3 ml. […]

Assay [5] deals with normal humans. Particulars: cited from earlier work.
The subject of assay [6] is alloxan diabetic dogs. Particulars: cited from earlier work.
The subject of assay [7] is acromegalics. Particulars: cited from earlier work.
Assay [8] relates to fatty (fa/fa) Zucker rats. The assay is described as follows: Reduction of glycerol and triglycerides, chronic treatment in fatty Zucker rats. The format is in vivo, rat. The source says: The obese (fa/fa) Zucker and its derivative in the Zucker diabetic fatty (ZDF/Drt-fa) are excellent models of diabetes-induced dyspilidemia (Shafrir, E., Diabetes/Metabolism Rev. 8:179-208 (1992); Peterson, R. G., et al., ILAR News 32:16-19 (1990)). The animals develop progressive hypertriglyceridemia and hypercholesterolemia.
Eleven male fatty Zucker rats weighing about 450 grams were randomly divided into 2 groups and their initial body weights recorded. The animals were housed in pairs in a normal 12 hour light/dark cycle at 20±2° C. and fed a standard laboratory rat diet (Beekay rat and mouse diet, Bantin & Kingman, Hull, Humberside, U.K.) overnight ad libitum.
For the group assigned to receive drug treatment, the rats received BIM-23268C at 3 mg/kg, by subcutaneous injection twice a day at 10:00 a.m. and 5:00 p.m. The other group was treated with a subcutaneous injection of 0.1 ml/100 g of saline twice a day at 10:00 a.m. and 5:00 p.m. The animals were subjected to the BIM-23268 or saline treatment for a total of six days.
On the last day of treatment (day 6), food was removed at 5:00 p.m. and the rats fasted overnight. At 9:00 a.m. the next day, the animals were subjected to a glucose challenge, given as a 0.8 gram/kg of glucose orally. Periodic 400 ul of blood samples were taken from the tail vein (Peterson, R. G., ILAR News 32:16-19 (1990)) at 60 min. and 30 min. before, and at 30, 60, 90, and 120 min. after the administration of the glucose challenge (08. gram/kg orally). Aprotinin (Traysylol, Bayer UK, Hayward's Heath, W. Sussex, U.K.) and heparin (Sigma Chemical Co., Poole, Dorset, U.K.) were added to the blood samples to a final concentration of 400 KIU/ml and 100 units/ml, respectively. Plasma fractions were prepared from these samples by centrifugation at 400×G in a microfuge, for the estimation of triglycerides and glycerol. Samples were then stored at -80° C. until assayed.
Plasma glycerol and triglycerides were determined using the Sigma Enzymatic (Tinder) calorimetric assay kit (Cat #337-B, Sigma Chemical Co., Poole, Dorset, U.K.) and measuring absorbance at 540 nm in a spectrophotometer.

The mark [9] stands for this setting: 3 mg/kg s.c. twice a day, 6 days, after oral glucose challenge 0.8 gram/kg, vs saline group.
The mark [10] stands for this setting: 3 mg/kg s.c. twice a day, 6 days, samples 30 and 60 min before oral glucose challenge.

T4 sequence (P32745 whole entry): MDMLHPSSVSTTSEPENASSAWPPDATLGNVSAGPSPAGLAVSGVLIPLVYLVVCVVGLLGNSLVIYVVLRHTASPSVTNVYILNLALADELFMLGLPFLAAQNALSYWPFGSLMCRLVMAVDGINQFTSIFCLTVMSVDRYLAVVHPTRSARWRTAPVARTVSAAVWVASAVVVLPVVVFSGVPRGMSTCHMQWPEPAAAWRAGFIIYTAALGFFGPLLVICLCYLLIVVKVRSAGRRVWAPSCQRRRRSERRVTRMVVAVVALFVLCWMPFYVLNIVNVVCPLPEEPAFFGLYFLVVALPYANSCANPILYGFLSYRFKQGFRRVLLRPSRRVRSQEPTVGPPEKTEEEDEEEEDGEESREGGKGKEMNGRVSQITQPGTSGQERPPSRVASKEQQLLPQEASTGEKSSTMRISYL

In the case of `C[C@@H](O)[C@@H]1NC(=O)[C@H](CCCCN)NC(=O)[C@@H](Cc2c[nH]c3ccccc23)NC(=O)[C@H](Cc2ccc(O)c(I)c2)NC(=O)[C@H](Cc2ccccc2)NC(=O)[C@@H](N)CSSC[C@@H](C(N)=O)NC(=O)[C@H](Cc2ccccc2)NC1=O` [BIM-23313, H-Cys-Phe-Tyr(I)-D-Trp-Lys-Thr-Phe-Cys-NH2], the Ki was determined as 0.3 nM in assay [1], 4.78 nM in assay [2], 55.3 nM in assay [3] and 25.5 nM in assay [4].
As for `C[C@H](N)C(=O)NCC(=O)N[C@H]1CSSC[C@@H](C(=O)O)NC(=O)[C@H](CO)NC(=O)[C@H]([C@@H](C)O)NC(=O)[C@H](Cc2ccccc2)NC(=O)[C@H]([C@@H](C)O)NC(=O)[C@H](CCCCN)NC(=O)[C@H](Cc2c[nH]c3ccccc23)NC(=O)[C@H](Cc2ccccc2)NC(=O)[C@H](Cc2ccccc2)NC(=O)[C@H](CC(N)=O)NC(=O)[C@H](CCCCN)NC1=O` [somatostatin], the plasma triglyceride concentrations result in assay [5], in assay [6] and in assay [7] was “reduce plasma triglyceride concentrations” each time.
As for `C[C@@H](O)[C@@H]1NC(=O)[C@H](CCCCN)NC(=O)[C@@H](Cc2c[nH]c3ccccc23)NC(=O)[C@H](Cc2ccccc2)NC(=O)[C@H](Cc2ccccc2)NC(=O)[C@@H](N)CSSC[C@@H](C(N)=O)NC(=O)[C@H](Cc2ccccc2)NC1=O` [BIM-23268, H-Cys-Phe-Phe-D-Trp-Lys-Thr-Phe-Cys-NH2] (H-CFF[dW]KTFC-NH2; disulfide 1-8 (inferred)), in assay [8] (setting [9]), the “plasma glycerol through the 2-hour test period” value was “significantly lower” and the “plasma triglycerides through the 2-hour test period” value was “significantly lower”. In addition, in assay [8] (setting [10]), the plasma glycerol entry is given as “significantly lowered” and the plasma triglycerides result is recorded as “significantly lowered”. Moreover, the hypertriglyceridemia result in assay [8] (6-day treatment period at the prescribed dose) was “effective in reducing hypertriglyceridemia”.
